The structures appear in SMILES notation.

Holding throughout (format): in vivo
Experiment [1] deals with Setaria faberi (SETFA). Put plainly: Example B pre-emergence herbicidal activity, glasshouse pot test. The conditions noted are these: 312 h, rate 1000 g/ha, evaluated after 13 days, read-out: herbicidal damage SETFA (100=total damage to plant; 0=no damage to plant). As for the experimental part:
(§1) Seeds of a variety of test species were sown in standard soil in pots. After cultivation for one day (pre-emergence) or after 8 days cultivation (post-emergence) under controlled conditions in a glasshouse (at 24/16° C., day/night; 14 hours light; 65% humidity), the plants were sprayed with an aqueous spray solution derived from the formulation of the technical active ingredient in acetone/water (50:50) solution containing 0.5% Tween 20 (polyoxyethelyene sorbitan monolaurate, CAS RN 9005-64-5). The test plants were then grown in a glasshouse under controlled conditions in a glasshouse (at 24/16° C., day/night; 14 hours light; 65% humidity) and watered twice daily. After 13 days for pre and post-emergence, the test was evaluated (100=total damage to plant; 0=no damage to plant). Alopecurus myosuroides (ALOMY), Avena fatua (AVEFA), Setaria faberi (SETFA), Echinochloa crus-galli (ECHCG), Solanum nigrum (SOLNI) and Amaranthus retroflexus (AMARE) Pre-Emergence Activity

Experiment [2] relates to Echinochloa crus-galli (ECHCG). The experiment is described as above. As to conditions: 312 h, rate 1000 g/ha, evaluated after 13 days, read-out: herbicidal damage ECHCG (100=total damage to plant; 0=no damage to plant). On the procedure: as §1
The test system of experiment [3] is Avena fatua (AVEFA). Described as above. As to conditions: 312 h, rate 1000 g/ha, evaluated after 13 days, read-out: herbicidal damage AVEFA (100=total damage to plant; 0=no damage to plant). As for the experimental part:
as §1

Experiment [4] relates to Solanum nigrum (SOLNI). Described as above. As to conditions: 312 h, rate 1000 g/ha, evaluated after 13 days, read-out: herbicidal damage SOLNI (100=total damage to plant; 0=no damage to plant). On the procedure: as §1
For experiment [5], the system named is Alopecurus myosuroides (ALOMY). Described as above. The conditions noted are these: 312 h, rate 1000 g/ha, evaluated after 13 days, read-out: herbicidal damage ALOMY (100=total damage to plant; 0=no damage to plant). On the procedure: as §1
For experiment [6], the system named is Amaranthus retroflexus (AMARE). The description is as above. As to conditions: 312 h, rate 1000 g/ha, evaluated after 13 days, read-out: herbicidal damage AMARE (100=total damage to plant; 0=no damage to plant). On the procedure: as §1
For experiment [7], the system named is Setaria faberi (SETFA). The experiment can be described thus: Example B post-emergence herbicidal activity, glasshouse pot test. As to conditions: 312 h, rate 1000 g/ha, evaluated after 13 days, read-out: herbicidal damage SETFA (100=total damage to plant; 0=no damage to plant). On the procedure:
as §1, with “Post-Emergence” for “Pre-Emergence”

The test system of experiment [8] is Echinochloa crus-galli (ECHCG). The experiment is described as above. The conditions noted are these: 312 h, rate 1000 g/ha, evaluated after 13 days, read-out: herbicidal damage ECHCG (100=total damage to plant; 0=no damage to plant). On the procedure: as §1, with “Post-Emergence” for “Pre-Emergence”
Experiment [9] deals with Avena fatua (AVEFA). The description is as above. The conditions noted are these: 312 h, rate 1000 g/ha, evaluated after 13 days, read-out: herbicidal damage AVEFA (100=total damage to plant; 0=no damage to plant). On the procedure: as §1, with “Post-Emergence” for “Pre-Emergence”
Experiment [10] deals with Solanum nigrum (SOLNI). The description is as above. The conditions noted are these: 312 h, rate 1000 g/ha, evaluated after 13 days, read-out: herbicidal damage SOLNI (100=total damage to plant; 0=no damage to plant). As for the experimental part:
as §1, with “Post-Emergence” for “Pre-Emergence”

The subject of experiment [11] is Alopecurus myosuroides (ALOMY). The description is as above. The conditions noted are these: 312 h, rate 1000 g/ha, evaluated after 13 days, read-out: herbicidal damage ALOMY (100=total damage to plant; 0=no damage to plant). On the procedure:
as §1, with “Post-Emergence” for “Pre-Emergence”

Experiment [12] relates to Amaranthus retroflexus (AMARE). The experiment is described as above. As to conditions: 312 h, rate 1000 g/ha, evaluated after 13 days, read-out: herbicidal damage AMARE (100=total damage to plant; 0=no damage to plant). On the procedure: as §1, with “Post-Emergence” for “Pre-Emergence”

For the molecule `CCc1ccc(-c2ccc(Cl)cc2)cc1C1=C(O)CC(CC2OCCO2)CC1=O` (stereo not drawn) [Compound A-45], the pest or weed control at 1000 g/ha in experiment [1] was determined as 90%; in experiment [2], 100%; in experiment [3] it was 70%; in [4], 100%; in experiment [5] it was 60%; in experiment [6], 0%. The pest or weed control at 1000 g/ha in experiment [7] is 100%; in experiment [8], 100%; in experiment [9] it was 100%; in [10], 10%; in [11], 100%; in [12], 0%.

Turning to `Cc1ccc(-c2ccc(Cl)cc2)cc1C1=C(O)CC(CC2OCCO2)CC1=O` (stereo not drawn) [Compound A-46, 2-(4′-Chloro-4-methylbiphenyl-3-yl)-5-[1,3]dioxolan-2-ylmethylcyclohexane-1,3-dione], the pest or weed control at 1000 g/ha in experiment [1] stood at 90%; in [2], 40%; in [3] it was 40%; in [4] it was 0%; in experiment [5], 20%; in experiment [6], 0%. In addition, the pest or weed control at 1000 g/ha in [7] was 90%; in experiment [8], 100%; in experiment [9], 80%; in [10] it was 20%; in experiment [11], 90%; in experiment [12], 20%.

On to `Cc1cc(-c2ccc(C)c(C3=C(O)CC(CC4CCOCC4)CC3=O)c2)ccc1F` (stereo not drawn) [Compound A-48], for which the pest or weed control at 1000 g/ha turned out to be 20% in experiment [1]; 20% in [2]; 0% in experiment [3]; 0% in experiment [4]; 0% in [5]; 0% in experiment [6]. The pest or weed control at 1000 g/ha turned out to be 80% in experiment [7]; 80% in experiment [8]; 60% in experiment [9]; 0% in experiment [10]; 60% in [11]; 10% in experiment [12].

`Cc1ccc(-c2ccc3c(c2)OCO3)cc1C1=C(O)CC(CC2CCOCC2)CC1=O` (stereo not drawn) [Compound A-53]: the pest or weed control at 1000 g/ha in experiment [1], in [2], in experiment [3], in [4], in experiment [5] and in experiment [6] was 0% each time. For the same molecule, the pest or weed control at 1000 g/ha in experiment [7] amounted to 60%; in experiment [8], 70%; in experiment [9], 50%; in experiment [10], 0%; in experiment [11], 50%; in experiment [12], 0%.

With `Cc1ccc(-c2ccc3c(c2)OCCO3)cc1C1=C(O)CC(CC2CCOCC2)CC1=O` (stereo not drawn) [Compound A-54], the pest or weed control at 1000 g/ha in experiment [1] is 0%; in experiment [2] it was 0%; in [3], 10%; in experiment [4], 0%; in experiment [5] it was 60%; in [6], 0%. Moreover, the pest or weed control at 1000 g/ha in experiment [7] came out at 0%; in [8], 70%; in experiment [9] it was 0%; in [10], 0%; in experiment [11] it was 0%; in experiment [12] it was 0%.

For the molecule `Cc1ccc(-c2ccc(Cl)cc2)cc1C1=C(O)CC(CC2OCCCO2)CC1=O` (stereo not drawn) [Compound A-55, 2-(4′-Chloro-4-methylbiphenyl-3-yl)-5-[1,3]dioxan-2-ylmethylcyclohexane-1,3-dione], the pest or weed control at 1000 g/ha in experiment [1] was 60%; in [2], 60%; in experiment [3], 20%; in experiment [4] it was 0%; in experiment [5], 0%; in [6] it was 0%. Further, the pest or weed control at 1000 g/ha in experiment [7] amounted to 100%; in [8], 100%; in experiment [9] it was 90%; in experiment [10], 0%; in [11], 90%; in [12] it was 0%.

In the case of `Cc1ccc(-c2ccc(Cl)cc2)cc1C1=C(O)CC(CC2OCC(C)(C)CO2)CC1=O` (stereo not drawn) [Compound A-56], the pest or weed control at 1000 g/ha in experiment [1] came out at 70%; in experiment [2], 0%; in [3], 0%; in experiment [4], 0%; in [5] it was 20%; in experiment [6] it was 0%. In addition, the pest or weed control at 1000 g/ha in [7] stood at 90%; in experiment [8] it was 100%; in experiment [9], 0%; in experiment [10], 0%; in experiment [11], 80%; in experiment [12], 0%.

Regarding `CCC1(CC)COC(CC2CC(=O)C(c3cc(-c4ccc(Cl)cc4)ccc3C)=C(O)C2)OC1` (stereo not drawn) [Compound A-57], the pest or weed control at 1000 g/ha in experiment [1] was 90%; in experiment [2] it was 0%; in [3], 0%; in [4], 0%; in [5] it was 40%; in [6], 0%. In addition, the pest or weed control at 1000 g/ha in experiment [7] was found to be 90%; in [8] it was 90%; in experiment [9], 20%; in [10], 0%; in experiment [11] it was 70%; in experiment [12] it was 0%.

For `Cc1ccc(-c2ccc(Cl)cc2)cc1C1=C(O)CC(CC2OCC3(CCOCC3)O2)CC1=O` (stereo not drawn) [Compound A-58], the pest or weed control at 1000 g/ha in experiment [1] came out at 30%; in [2] it was 60%; in experiment [3], 0%; in experiment [4], 0%; in [5] it was 20%; in experiment [6] it was 0%. Further, the pest or weed control at 1000 g/ha in experiment [7] is 90%; in experiment [8] it was 90%; in experiment [9], 40%; in [10] it was 0%; in experiment [11], 60%; in experiment [12] it was 0%.

As for `Cc1ccc(-c2ccc(Cl)cc2)cc1C1=C(O)CC(CC2OCC(C3CCOCC3)O2)CC1=O` (stereo not drawn) [Compound A-59], the pest or weed control at 1000 g/ha in [1] is 60%; in [2] it was 0%; in experiment [3] it was 0%; in experiment [4] it was 0%; in [5] it was 20%; in experiment [6] it was 0%. The pest or weed control at 1000 g/ha was 90% in experiment [7]; 90% in experiment [8]; 20% in experiment [9]; 0% in experiment [10]; 70% in experiment [11]; 0% in experiment [12].

(Values after patent US8735322B2, “Herbicides” (Syngenta Limited, priority 2008, dated 2014).)
